Some test systems named below: A549 NSCLC; SW-620 colon; CCRF-CEM leukemia; KM12 colon; COLO 205 colon; HOP-62 NSCLC; MDA-MB-435; PC-3 prostate; MDA-MB-231 breast.
Test in all cases: DTP human tumour cell line panel, 48 h

“And” between values parts separate entries of the source, which are not always exact repeats. Equal entries are not always repeated.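 How tested: cells in 96-well plates exposed to compound for 48 hours at five concentrations. GI50 is the concentration that inhibits growth by half. TGI is the concentration that stops growth completely.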

The term TGI denotes the concentration at which net growth stops. Low readings indicate more potent growth arrest, high ones less potent growth arrest. In the case of `COc1ccccc1/C=C(\C#N)c1ccccc1`, the concentration for total growth inhibition (TGI) with A549 NSCLC is greater than 100 µM; in the experiment with SW-620 colon it was greater than 100 µM; in the experiment on CCRF-CEM leukemia, 55.2 µM; in the experiment with KM12 colon it was greater than 100 µM; in the experiment on COLO 205 colon, 32.4 µM; in the experiment on HOP-62 NSCLC it was greater than 100 µM.
Take `COc1ccc(C2CC(=O)c3c(O)cc(O)cc3O2)cc1O` (configuration not stated): the total growth inhibition concentration (TGI) in the experiment with A549 NSCLC, in the experiment on SW-620 colon, with CCRF-CEM leukemia, in the experiment with KM12 colon, in the experiment on COLO 205 colon and in the experiment on HOP-62 NSCLC was greater than 100 µM throughout.
Take `O=C1[C@@H]2C(c3ccccc3Br)=NO[C@@H]2C(=O)N1c1ccc(Cc2ccc(N3C(=O)[C@H]4C(c5ccccc5Br)=NO[C@H]4C3=O)cc2)cc1`: the concentration for total growth inhibition (TGI) in the experiment on A549 NSCLC, in the experiment with SW-620 colon, with CCRF-CEM leukemia, in the experiment on KM12 colon, in the experiment on COLO 205 colon and in the experiment on HOP-62 NSCLC was greater than 100 µM each time.
As to `CN1N=CSC12C(=O)N(c1ccc(Cl)cc1)C(=O)N2c1ccc(Cl)cc1` (configuration not stated), the TGI was greater than 100 µM with A549 NSCLC; greater than 100 µM with SW-620 colon; greater than 100 µM in the experiment on CCRF-CEM leukemia; 30.3 µM in the experiment on KM12 colon; 3.38 µM in the experiment on COLO 205 colon; 15.5 µM in the experiment with HOP-62 NSCLC.
For the compound `CC(C)(C)NNC(=O)/C(=C/c1ccc([N+](=O)[O-])cc1)NC(=O)c1ccccc1`, the total growth inhibition concentration (TGI) is greater than 100 µM with A549 NSCLC; 99.1 µM with CCRF-CEM leukemia; greater than 100 µM in the experiment with KM12 colon; 79.2 µM with COLO 205 colon; greater than 100 µM in the experiment with HOP-62 NSCLC.
As for `N#Cc1ccccc1NC(=O)/C(=N\N)C(C(=O)c1ccncc1)C1OC(=O)c2ccccc21` (configuration not stated), the total growth inhibition concentration (TGI) in the experiment on A549 NSCLC, with SW-620 colon, with CCRF-CEM leukemia, in the experiment with KM12 colon, in the experiment with COLO 205 colon and with HOP-62 NSCLC was greater than 100 µM in each case.
As for `CC(C)(C)OC1=C(OC(C)(C)C)C(O)(c2ccccc2)C1=O` (configuration not stated), the TGI in the experiment with A549 NSCLC, in the experiment with SW-620 colon, in the experiment with CCRF-CEM leukemia, in the experiment on KM12 colon and with COLO 205 colon was greater than 100 µM in each case.
As for `CC(NS(=O)(=O)c1ccc([N+](=O)[O-])cc1)C(=O)O` (configuration not stated), the concentration for total growth inhibition (TGI) in the experiment on A549 NSCLC, in the experiment on SW-620 colon, with CCRF-CEM leukemia, in the experiment on KM12 colon and with COLO 205 colon was greater than 100 µM each time.
For `O=C(Nc1ccccc1-c1n[nH]c(=S)[nH]c1=O)C(F)(F)F`, the TGI in the experiment on A549 NSCLC, in the experiment with SW-620 colon, with CCRF-CEM leukemia, with KM12 colon, with COLO 205 colon and with HOP-62 NSCLC was greater than 100 µM each time.
A word on the GI50: it is the concentration at which growth is held to half of that of the control. For `COc1cc(C2c3[nH]c4ccccc4c3C[C@H]3COC(=O)N23)cc(OC)c1OC` (some centres not stated), the GI50 in the experiment on A549 NSCLC is 0.0233 µM; with PC-3 prostate, less than 0.01 µM; with SW-620 colon, less than 0.01 µM; with COLO 205 colon it was less than 0.01 µM; in the experiment with HOP-62 NSCLC it was less than 0.01 µM. The total growth inhibition concentration (TGI) with A549 NSCLC was greater than 100 µM; with MDA-MB-435, 0.0494 µM; in the experiment with SW-620 colon, greater than 100 µM; in the experiment with CCRF-CEM leukemia, 0.0789 µM; in the experiment on KM12 colon, 1.68 µM; with COLO 205 colon it was 0.287 µM and 0.0434 µM.
`FC(F)(F)Oc1cccc(-c2cnc3ccc(-c4ccncc4)nn23)c1`: the GI50 with A549 NSCLC is 1.12 µM; in the experiment with MDA-MB-435, 2.11 µM; with SW-620 colon, 0.801 µM; in the experiment on CCRF-CEM leukemia, 2.03 µM; in the experiment with KM12 colon it was 0.662 µM; in the experiment with COLO 205 colon, 1.5 µM. The values for the GI50 in the experiment on MDA-MB-231 breast and with HOP-62 NSCLC were 3.18 µM and 2.17 µM, respectively. Moreover, the concentration for total growth inhibition (TGI) with A549 NSCLC is 9.22 µM; in the experiment on MDA-MB-435, 48.9 µM; with SW-620 colon it was greater than 100 µM; with CCRF-CEM leukemia, 27 µM; with KM12 colon, greater than 100 µM; with COLO 205 colon, 16.7 µM. Besides, the concentration for total growth inhibition (TGI) in the experiment with MDA-MB-231 breast and in the experiment with HOP-62 NSCLC was greater than 100 µM each time.
For the compound `COC(=O)C1=C(c2ccc(OC)c(OC)c2)OC(c2ccc(OC)c(OC)c2)C1` (configuration not stated), the total growth inhibition concentration (TGI) was greater than 100 µM in the experiment with A549 NSCLC; greater than 100 µM with SW-620 colon; greater than 100 µM in the experiment with CCRF-CEM leukemia; greater than 100 µM in the experiment with KM12 colon; 36.4 µM with COLO 205 colon; greater than 100 µM in the experiment with HOP-62 NSCLC.
Turning to `CC(C)/C=C1\CCC(CN2CCCC2)C1=O` (configuration not stated), the TGI is 20.1 µM in the experiment on A549 NSCLC; 7.94 µM in the experiment with SW-620 colon; 17.3 µM with CCRF-CEM leukemia; 23.1 µM with KM12 colon; 18.1 µM in the experiment with COLO 205 colon; greater than 100 µM in the experiment on HOP-62 NSCLC.
Consider `Cc1ccc2c(c1)C(C)Cc1c(ncnc1-n1cnc3ccccc31)N2C` (configuration not stated), for which the GI50 in the experiment on A549 NSCLC was 0.973 µM; with PC-3 prostate it was 0.284 µM; in the experiment with SW-620 colon, 0.281 µM; in the experiment with CCRF-CEM leukemia it was 0.267 µM; with KM12 colon it was 0.434 µM; in the experiment on COLO 205 colon, 0.285 µM. The GI50 with MDA-MB-231 breast was 0.809 µM; in the experiment with HOP-62 NSCLC, 0.433 µM. Besides, the concentration for total growth inhibition (TGI) in the experiment with A549 NSCLC was determined as 17.3 µM; with PC-3 prostate it was 36.4 µM; in the experiment on SW-620 colon it was 17 µM; in the experiment on CCRF-CEM leukemia it was 12.6 µM; in the experiment with KM12 colon, 16.6 µM; with COLO 205 colon, 0.818 µM. The total growth inhibition concentration (TGI) in the experiment on MDA-MB-231 breast was found to be 18.2 µM; with HOP-62 NSCLC it was 16 µM.
Take `CN(C)c1ccc2c(=O)c3ccccc3oc2n1`: the TGI with A549 NSCLC, in the experiment on SW-620 colon, in the experiment with CCRF-CEM leukemia, in the experiment on KM12 colon, with COLO 205 colon and in the experiment with HOP-62 NSCLC was greater than 100 µM in each case.
Regarding `Cc1ccc(NC(=O)c2cc3cc(N=Nc4ccc(Br)cc4)ccc3oc2=O)cc1`, the TGI in the experiment with A549 NSCLC, with SW-620 colon, with KM12 colon and with COLO 205 colon was greater than 100 µM in each case.
Consider `O=C(Nc1ccc(Cl)cc1Cl)C1C(=O)N(c2ccc(Cl)cc2Cl)C(=O)/C1=N\Nc1ccc([N+](=O)[O-])cc1[N+](=O)[O-]` (configuration not stated), for which the concentration for total growth inhibition (TGI) with A549 NSCLC, in the experiment with SW-620 colon, in the experiment with CCRF-CEM leukemia, in the experiment with KM12 colon, in the experiment with COLO 205 colon and in the experiment with HOP-62 NSCLC was greater than 100 µM in each case.
Regarding `CC1CC[C@]2(C(=O)O)CCC3(COC(=O)/C=C\c4ccc(O)cc4)C(=CCC4[C@@]5(C)CC[C@H](O)C(C)(C)C5CC[C@]43C)[C@@H]2[C@H]1C` (some centres not stated), the TGI in the experiment on A549 NSCLC is 26.3 µM; in the experiment with SW-620 colon, greater than 100 µM; in the experiment with CCRF-CEM leukemia it was 81.9 µM; in the experiment on KM12 colon, 25.7 µM; in the experiment on COLO 205 colon, 50.9 µM.
